In patent US5883091A, “1,3,4-oxadiazine derivatives having a pesticide effect” (priority 1994, dated 1999):

System: two-spotted spider mite (Tetranychus urticae)
Assay: Tetranychus-Test (OP resistant/spray treatment)
Format: in vivo
Conditions: Tetranychus urticae, 120 h; after 5 days; active compound concentration 0.001%; OP resistant; spray treatment of infested bean plants; 100% = all spider mites destroyed, 0% = none destroyed; read-out: destruction of spider mites (action in %)
Procedure: Tetranychus-Test (OP resistant/spray treatment)
Solvent: 3 parts by weight of dimethylformamide
Emulsifier: 1 part by weight of alkylaryl polyglycol ether
To prepare a suitable preparation of active compound, 1 part by weight of active compound is mixed with the stated amount of solvent and the stated amount of emulsifier, and the concentrate is diluted with water to the desired concentrations.
Bean plants (Phaseolus vulgaris) which are severely infested with all stages of the two-spotted spider mite (Teiranychus urticae) are sprayed with a preparation of active compound of the desired concentration.
After the desired time, the action is determined in %. 100% means that all spider mites have been destroyed; 0% means that no spider mites have been destroyed.

Compound	mortality at 0.001 %
Fc1cccc(F)c1C1=NN(c2ccc(-c3ccc(OC(F)(F)F)cc3)cc2)CCO1 [Example 3, 4-[4-(4-trifluoromethoxyphenyl)phenyl]-2-(2,6-difluorophenyl)-4H-5,6-dihydro-1,3,4-oxadiazine]	95%
CC(C)(C)c1ccc(CN2CCOC(c3c(F)cccc3F)=N2)cc1 [Example 4, 2-(2,6-difluorophenyl)-4-(4-tert-butylbenzyl)-4H-5,6-dihydro-1,3,4-oxadiazine]	98%

Same assay, conditions: after 5 days; active compound concentration 0.001%; OP resistant; spray treatment of infested bean plants; 100% = all spider mites destroyed, 0% = none destroyed

Compound	destruction of spider mites (action in %)
FCCN1CCOC(c2ccc(Br)cc2)=N1 [A, 2-(4-Bromophenyl)-4-(2-fluoroeth-1-yl)-4H-5,6-dihydro-1,3,4-oxadiazine, reference compound]	no action

System: not listed separately
Assay: log p (pH 2), physical constants
Format: physicochemical
Conditions: not given

Compound	logD
Clc1ccc(C2=NN(Cc3ccc(Oc4ccccc4)cc3)CCO2)c(Cl)c1 [Example 18]	5.61
FC(F)(F)c1ccc(Oc2ccc(CN3CCOC(c4cc(Cl)ccc4Cl)=N3)cc2)c(Cl)c1 [Example 19]	6.35
Fc1cccc(F)c1C1=NN(Cc2cc(Cl)c(OCc3ccc(Cl)cc3)c(Cl)c2)CCO1 [Example 21]	5.67
Clc1ccc(COc2c(Cl)cc(CN3CCOC(c4cccs4)=N3)cc2Cl)cc1 [Example 24]	5.95
Clc1ccc(Cl)c(C2=NN(Cc3cccc(Oc4ccccc4)c3)CCO2)c1 [Example 25]	5.57
FC(F)(F)c1ccc(C2=NN(Cc3ccc(Oc4ccc(C(F)(F)F)cc4Cl)cc3)CCO2)cc1 [Example 26]	6.44
Fc1cccc(F)c1C1=NN(Cc2ccc(-c3ccc(OC(F)(F)F)cc3)cc2)CCO1 [Example 29]	5.15
FC(F)(F)Oc1ccc(-c2ccc(CN3CCOC(c4cc(Cl)cc(Cl)c4)=N3)cc2)cc1 [Example 37]	7.36

Continued, values first:

logD	Compound
4.26	Brc1ccc(CN2CCOC(c3cccs3)=N2)cc1 [Example 20]
4.03	Fc1cccc(F)c1C1=NN(Cc2ccc(Br)cc2)CCO1 [Example 22]
5.41	FC(F)(F)Oc1ccc(-c2ccc(CN3CCOC(c4cccs4)=N3)cc2)cc1 [Example 23]
6.13	Fc1ccc(CN2CCOC(c3ccc(Cl)c(Cl)c3)=N2)cc1Oc1ccccc1 [Example 27]
4.49	Fc1cccc(F)c1C1=NN(Cc2ccc(-c3ccccc3)cc2)CCO1 [Example 30]
6.43	FC(F)(F)c1cccc(C2=NN(Cc3ccc(Oc4ccc(C(F)(F)F)cc4Cl)cc3)CCO2)c1 [Example 31]
4.73	Fc1ccc(C2=NN(Cc3ccc(Br)cc3)CCO2)cc1 [Example 32]
5.41	Fc1ccc(CN2CCOC(c3cc(Cl)ccc3Cl)=N2)cc1Oc1ccccc1 [Example 33]
6.47	Clc1cc(Cl)cc(C2=NN(Cc3ccc(Br)cc3)CCO2)c1 [Example 34]
4.8	Fc1cccc(C2=NN(Cc3ccc(Br)cc3)CCO2)c1 [Example 35]
5.87	Fc1cccc(C2=NN(Cc3ccc(-c4ccc(OC(F)(F)F)cc4)cc3)CCO2)c1 [Example 36]
3.38	Fc1cccc(F)c1C1=NN(Cc2ccccc2)CCO1 [Example 38]
